# Data published in US20080161309A1, “Novel Compounds” (priority 2004, published 2008).
# Structures can show the parent of a compound that is named as a salt.
# What was measured:
# [1] = Vapor sorption analysis of salts; type: physicochemical; details: 90% relative humidity, 25° C.; for moles water uptake per total moles of sample at 90% RH: calculated; for % mass change at 90% RH: compared to original mass of sample
# Procedure: The propensity of besylate, hydrochloride, edisylate and fumarate salts of (2S)-2-[(S)-(4-chloro-2-methoxyphenoxy)(phenyl)methyl]morpholine to absorb water vapor was studied at various relative humidities (RH). The besylate, hydrochloride, and edisylate salts were analysed using a VTI Corporation SGA-100 Symmetric Vapor Sorption Analyzer equipped with a CI Electronics Limited, CI MK2, 1 Gram Microbalance, an EdgeTech MODEL 2000 […] DF DEWPOINT HYGROMETER, and an JULABO USA, Inc F25-HE Refrigerated and Heated Circulator. The following method was used:
# The propensity of (2S)-2-[(S)-(4-chloro-2-methoxyphenoxy)(phenyl)methyl]morpholine […] to absorb water was similarly analyzed using a VTI Corporation SGA-100 Symmetric Vapor Sorption Analyzer equipped with a CAHN INSTRUMENTS INC, INC. D-200 Digital Recording Balance, an EdgeTech MODEL 2000 […] DF DEWPOINT HYGROMETER, and a JULABO USA, Inc F25-HD Refrigerated and Heated Circulator.
# [2] = tested on: capsaicin-induced mechanical allodynia; assay: Rat model of capsaicin-induced mechanical allodynia; type: in vivo; details: sc, male Sprague-Dawley rats, 10 mg/kg subcutaneously, PWT 1 hour after single dose, mean of eight animals, normalized for vehicle, read-out: % Inhibition of allodynia
# Procedure: Compounds of the present invention may be assayed for their ability to treat fibromylagia—like pain in a rat model of capsaicin-induced mechanical allodynia (e.g., Sluka, K A, (2002) J of Neuroscience, 22(13): 5687-5693). For example, a rat model of capsaicin-induced mechanical allodynia) was be carried out as follows:
# On day 0, male Sprague-Dawley rats (˜150 g) in the dark cycle were placed in suspended wire-bottom cages and allowed to acclimate for 0.5 hour in a darkened, quiet room. The day 0 paw withdrawal threshold (PWT) was determined on the left hind paw by Von Frey hair assessment using the Dixon up and down method. After assessment, the plantar muscle of the right hind paw was injected with 100 μl capsaicin (0.25% (w/v) in 10% ethanol, 10% Tween 80, in sterile saline). On day 6 the PWT of the left hindpaw (contralateral from injection site) was determined for each animal. Animals from the day 6 prereads with PWT≦11.7 g were considered allodynic responders and were regrouped so that each cage had similar mean PWT values. On day 7, responders were dosed subcutaneously with 10 mg compound/kg body weight, or with vehicle alone. The vehicle was phosphate buffered saline containing 2% Cremophor® EL (BASF). The contralateral PWT values were determined at 1 hour after the single dose, with the investigator blinded to the dosing scheme.
# In addition, the day 6 PWT was subtracted from the day 0 PWT to give the baseline window of allodynia present in each animal.
# [3] = target: T1, human norepinephrine transporter (hNET) (Homo sapiens, UniProt P23975); assay: hNET receptor binding, [125I]-RTI-55, HEK-293 membranes; details: Cheng-Prusoff, read-out: NET Ki
# T1 construct: expressed in transfected cells; host or cells: HEK-293, membranes
# T1 sequence (P23975 whole entry): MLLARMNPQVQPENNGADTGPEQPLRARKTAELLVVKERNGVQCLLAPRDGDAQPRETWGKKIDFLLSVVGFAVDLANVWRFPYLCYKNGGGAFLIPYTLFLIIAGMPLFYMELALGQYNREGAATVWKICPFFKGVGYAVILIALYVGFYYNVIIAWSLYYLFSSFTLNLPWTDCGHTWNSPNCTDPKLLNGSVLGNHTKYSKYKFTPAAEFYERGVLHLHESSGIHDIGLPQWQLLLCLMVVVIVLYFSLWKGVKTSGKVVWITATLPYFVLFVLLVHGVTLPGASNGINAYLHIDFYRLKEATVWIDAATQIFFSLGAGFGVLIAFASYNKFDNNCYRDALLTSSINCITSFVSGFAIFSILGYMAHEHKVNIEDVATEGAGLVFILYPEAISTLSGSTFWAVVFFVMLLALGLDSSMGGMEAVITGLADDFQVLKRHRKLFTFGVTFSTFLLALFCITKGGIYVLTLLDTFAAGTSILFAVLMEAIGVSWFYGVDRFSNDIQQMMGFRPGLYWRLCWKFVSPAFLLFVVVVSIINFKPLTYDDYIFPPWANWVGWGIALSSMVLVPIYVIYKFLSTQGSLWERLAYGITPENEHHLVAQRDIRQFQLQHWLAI
# Procedure: Cell pastes of HEK-293 cells transfected with a human norepinephrine transporter cDNA were prepared. The cell pastes were resuspended in 400 to 700 ml of Krebs-HEPES assay buffer (25 mM HEPES, 122 mM NaCl, 3 mM KCl, 1.2 mM MgSO4, 1.3 mM CaCl2, and 11 mM glucose, pH 7.4) with a Polytron homogenizer at setting 7 for 30 seconds. Aliquots of membranes (5 mg/ml protein) were stored in liquid nitrogen until used.
# The binding assay was set up in Beckman deep-well polypropylene plates with a total volume of 250 μl containing: drug (10^−5M to 10^−12M), cell membranes, and […] [^125I]-RTI-55 (Perkin Elmer, NEX-272; specific activity 2200 Ci/mmol). The reaction was incubated by gentle agitation for 90 minutes at room temperature and was terminated by filtration through Whatman GF/C filter plates using a Brandel 96-well plate harvester. Scintillation fluid (100 μl) was added to each well, and bound [^125I]-RTI-55 was determined using a Wallac Trilux Beta Plate Counter. Test compounds were run in duplicate, and specific binding was defined as the difference between binding in the presence and absence of 10 μM desipramine.
# Excel and GraphPad Prism software were used for data calculation and analysis. IC50 values were converted to Ki values using the Cheng-Prusoff equation. The Ki values (nM) for the hNET are reported below in Table 1.
# [4] = target: T2, human serotonin transporter (hSERT) (Homo sapiens, UniProt P31645); assay: hSERT receptor binding, [125I]-RTI-55, HEK-293 membranes; details: [125I]-RTI-55, HEK-293 membranes, Cheng-Prusoff; read-out: SERT Ki
# T2 construct: expressed in transfected cells; host or cells: HEK-293, membranes
# T2 sequence (P31645 whole entry): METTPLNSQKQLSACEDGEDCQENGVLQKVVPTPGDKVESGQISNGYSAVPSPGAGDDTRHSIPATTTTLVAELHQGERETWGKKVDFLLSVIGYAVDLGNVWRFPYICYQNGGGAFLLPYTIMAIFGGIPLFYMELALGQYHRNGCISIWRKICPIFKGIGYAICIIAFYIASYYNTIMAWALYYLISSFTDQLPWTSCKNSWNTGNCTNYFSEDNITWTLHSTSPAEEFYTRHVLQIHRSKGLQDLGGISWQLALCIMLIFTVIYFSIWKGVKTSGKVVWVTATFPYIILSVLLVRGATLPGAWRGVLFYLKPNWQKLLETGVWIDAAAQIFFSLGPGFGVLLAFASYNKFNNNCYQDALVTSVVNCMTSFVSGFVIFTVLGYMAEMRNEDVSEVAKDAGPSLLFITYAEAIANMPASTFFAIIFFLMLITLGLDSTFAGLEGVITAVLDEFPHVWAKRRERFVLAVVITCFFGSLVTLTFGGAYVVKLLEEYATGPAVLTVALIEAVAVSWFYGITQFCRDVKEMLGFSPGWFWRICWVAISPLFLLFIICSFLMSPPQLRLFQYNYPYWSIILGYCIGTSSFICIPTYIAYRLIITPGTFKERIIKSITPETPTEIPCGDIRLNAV
# Procedure: Cell pastes of HEK-293 cells transfected with a human serotonin transporter cDNA were prepared. […] Aliquots of membranes (−2.5 mg/ml protein) were stored in liquid nitrogen until used.
# The reaction was incubated and gently agitated for 90 minutes at room temperature, and terminated by removal of assay volume. […] Test compounds were run in duplicate, and specific binding was defined as the difference between binding in the presence and absence of 10 μM citalopram. Excel and GraphPad Prism software were used for data calculation and analysis. IC50 values were converted to Ki values using the Cheng-Prusoff equation.
compound,measurement,setting,value
COc1cc(Cl)ccc1OC(c1cccc(F)c1)C1CNCCO1 (centres unmarked) (as salt: camsylate) [Example 3],melting point,,162.03 °C
FC(F)Oc1cc(Cl)ccc1OC(c1ccccc1)C1CNCCO1 (centres unmarked) (as salt: citrate) [Example 4],melting point,,119.29 °C
Fc1c(Cl)cccc1OC(c1ccccc1)C1CNCCO1 (centres unmarked) (as salt: edisylate) [Example 8],melting point,,189.23 °C
Fc1cccc(OC(c2ccccc2)C2CNCCO2)c1F (centres unmarked) (as salt: fumarate) [Example 6],melting point,,119.96 °C
Fc1ccc(OC(c2ccccc2)C2CNCCO2)c(F)c1 (centres unmarked) (as salt: hydrobromid) [Example 7],melting point,,106.48 °C
COc1cc(Cl)ccc1OC(c1ccc(F)cc1)C1CNCCO1 (centres unmarked) (as salt: hydrochloride) [Example 2],melting point,,148.11 °C
c1ccc(C(Oc2cccc3cccnc23)C2CNCCO2)cc1 (centres unmarked) (as salt: succinate) [Example 9],melting point,,98.24 °C
Fc1cc(Cl)ccc1OC(c1ccccc1)C1CNCCO1 (centres unmarked) (as salt: tartrate) [Example 5],melting point,,92.68 °C
"COc1cc(Cl)ccc1O[C@@H](c1ccccc1)[C@@H]1CNCCO1.Cl [Example 38, (2S)-2-[(1S)-(4-chloro-2-methoxyphenoxy) (phenyl)methyl] morpholine hydrochloride]",moles water uptake per total moles of sample at 90% RH,[1],0.77
same,% mass change at 90% RH,[1],3.8%
same,inhibition in vivo at 10 mg/kg,[2],59%
"Cc1ccc(Cl)c(O[C@@H](c2ccccc2)[C@@H]2CNCCO2)c1 [Example 87, (2S)-2-[(1S)-(2-Chloro-5-methylphenoxy)phenylmethyl] morpholine fumarate]",Ki,[3],18 nM
same,Ki,[4],184 nM
same,inhibition in vivo at 10 mg/kg,[2],9.3%
"Clc1ccc(Cl)c(O[C@@H](c2ccccc2)[C@@H]2CNCCO2)c1 [Example 89, (2S)-2-[(1S)-(2,5-Dichlorophenoxy)phenylmethyl] morpholine fumarate]",Ki,[3],20.3 nM
same,Ki,[4],171 nM
same,inhibition in vivo at 10 mg/kg,[2],27.8%
"COc1cc(Cl)c(Cl)cc1O[C@@H](c1ccccc1)[C@@H]1CNCCO1 [Example 93, (2S)-2-[(1S)-(4,5-Dichloro-2-methoxyphenoxy)phenylmethyl] morpholine fumarate]",Ki,[3],164 nM
same,Ki,[4],70 nM
same,inhibition in vivo at 10 mg/kg,[2],39%
"Fc1ccc(O[C@@H](c2cccc(Cl)c2)[C@@H]2CNCCO2)c(Cl)c1 [Example 102, (2S)-2-[(1S)-(2-Chloro-4-fluorophenoxy) (3-chlorophenyl)methyl] morpholine fumarate]",Ki,[3],48.3 nM
same,Ki,[4],222 nM
same,inhibition in vivo at 10 mg/kg,[2],59.5%
"Fc1ccc(O[C@@H](c2ccccn2)[C@@H]2CNCCO2)c(Cl)c1 [Example 105, (2S)-2-[(1S)-(2-chloro-4-fluorophenoxy)(pyridin-2-yl)methyl]morpholine fumarate]",Ki,[3],3.5 nM
same,Ki,[4],621 nM
same,inhibition in vivo at 10 mg/kg,[2],13.7%
"COc1cc(Cl)ccc1O[C@@H](c1ccccc1)[C@@H]1CNCCO1.O=S(=O)(O)c1ccccc1 [besylate, (2S)-2-[(S)-(4-chloro-2-methoxyphenoxy)(phenyl)methyl]morpholine besylate]",moles water uptake per total moles of sample at 90% RH,[1],0.17
same,% mass change at 90% RH,[1],0.64%
"COc1cc(Cl)ccc1O[C@@H](c1ccccc1)[C@@H]1CNCCO1.O=C(O)/C=C/C(=O)O [fumaric, (2S)-2-[(1S)-(4-chloro-2-methoxyphenoxy) (phenyl)methyl]morpholine fumarate]",moles water uptake per total moles of sample at 90% RH,[1],0.69
same,% mass change at 90% RH,[1],2.8%
(2S)-2-[(S)-(4-chloro-2-methoxyphenoxy)(phenyl)methyl]morpholine edisylate,moles water uptake per total moles of sample at 90% RH,[1],1.32
same,% mass change at 90% RH,[1],4.6%
